Measurements from patent publication US20160355684A1, “ANTHRAQUINONE DYE USED FOR A COLOR FILTER OF A LCD” (DOW GLOBAL TECHNOLOGIES LLC, priority 2014, published 2016).

How the values were obtained:
Format in all cases: physicochemical
[1] = Thermal stability of films (chromaticity difference ΔEab after baking); conditions: for ΔEab after baking at 230° C. for 1 h: film of dye in alkaline soluble acrylic resin on glass, hard bake 230° C., air, smaller value = better heat resistance
Description: 0.15 g of Dye 1, 1.35 g PGMEA and 1.00 g of alkaline soluble acrylic resin solution (MIPHOTO RPR4022, supplied from Miwan Commercial Co., Ltd., 25 to 35% of solid content in (methyl 3-methoxypropionate)) were mixed and stirred for overnight at room temperature using a shaker. The solution was filtered with a 0.45 μm Acrodisc CR PTFE filter to get rid of big particles. Then the filtered solution was spin coated onto a clean glass substrate with 400 rpm spin speed for 18 seconds. The obtained film was first dried at 90° C. under air atmosphere for 30 minutes, and then hard baked at 230° C. under air atmosphere for 1 hour. The CIE values (xyY values and lab values) and the UV-Vis were measured before and after the hard bake.
The obtained dry film was further baked at 230° C. under air for 1 hour to evaluate thermal stability of the film. Optical performance after baking (ΔEab value) was 1.8, and the one of after further baking was 2.7. A smaller ΔEab value indicates better heat resistance.
(4) Thermal Stability of Films (Chromaticity):
The wet film after spin coating is dried in oven at 90° C. for 30 minutes and then soft baked at 150° C. for 15 minutes. The chromaticity coordinates (L, a, b) are recorded with UltraScan Pro (Hunterlab) colorimeter. D65/10 light source is used and results are based on CIE Lab coordinates. After that the film is hard baked at target temperature (230° C.) for 1 hour and the new chromaticity coordinates (L′, a′, b′) are recorded with the method above. The thermal stability of a film is indicated by the difference of chromaticity coordinate after baking at 230° C. represented by the following formula;
ΔE=√{square root over ((L−L′)^2+(a−a′)^2+(b−b′)^2)}

[2] = Solubility of dye in PGMEA; conditions: solvent PGMEA (propylene glycol monomethyl ether acetate)
[3] = Thermal stability of dyes (mass loss measured by TGA); conditions: dye itself
Description: (1) Thermal Stability of Dyes (Mass Loss Measured by TGA):
The thermal stability of dye itself was determined by the mass loss of dye measured by TGA under air atmosphere at 230° C. for 1 hour. This evaluation reflects chemical stability of the dye itself.

SMILES | ΔEab after baking at 230° C. for 1 h [1] | Solubility in PGMEA (wt %) [2] [wt %] | weight loss at 230° C. for 1 h in air from TGA [3] [%] | Optical performance after baking (ΔEab value) ([1]; Dye 1 film, after baking) | ΔEab value after further baking ([1]; Dye 1 film, further baked at 230° C. under air for 1 hour)
CC(C[Si](C)(O[Si](C)(C)C)O[Si](C)(C)C)C(=O)OCCNc1ccc(NCCOC(=O)C(C)C[Si](C)(O[Si](C)(C)C)O[Si](C)(C)C)c2c1C(=O)c1ccccc1C2=O (centres unmarked) [(QS), reference compound] | 24.5 (color changed | ~4.6 | – | – | –
Cc1cc(OCCC[Si](C)(O[Si](C)(C)C)O[Si](C)(C)C)cc(C)c1Nc1ccc(Nc2c(C)cc(OCCC[Si](C)(O[Si](C)(C)C)O[Si](C)(C)C)cc2C)c2c1C(=O)c1ccccc1C2=O [Dye 1] | 3.2 | 17 | 7.74 | 1.8 | 2.7
Cc1cc(C)c(Nc2ccc(Nc3c(C)cc(C)cc3C)c3c2C(=O)c2ccccc2C3=O)c(C)c1 [Solvent Blue 104, 1,4-bis(mesitylamino)anthraquinone, reference compound] | 7.0 | 0.6 | – | – | –
Cc1cc(C)c(Nc2ccc(Nc3c(C)cc(OCCC[Si](C)(C)O[Si](C)(C)O[Si](C)(C)CCCOc4cc(C)c(Nc5ccc(Nc6c(C)cc(C)cc6C)c6c5C(=O)c5ccccc5C6=O)c(C)c4)cc3C)c3c2C(=O)c2ccccc2C3=O)c(C)c1 [Dye 2] | – | – | 2.49 | – | –
Cc1cc(C)c(Nc2ccc(Nc3c(C)cc(OCCC[Si](C)(C)O[Si](C)(C)O[Si](C)(C)CCCOc4cc(C)c(Nc5ccc(Nc6c(C)cc(C)cc6C)c6c5C(=O)c5ccccc5C6=O)c(C)c4)cc3C)c3c2C(=O)c2ccccc2C3=O)c(C)c1 [Dye 3] | 1.5 | 9.7 | – | – | –
Cc1cc(C)c(Nc2ccc(Nc3c(C)cc(OCCC[Si](C)(O[Si](C)(C)C)O[Si](C)(CCCOc4cc(C)c(Nc5ccc(Nc6c(C)cc(C)cc6C)c6c5C(=O)c5ccccc5C6=O)c(C)c4)O[Si](C)(C)C)cc3C)c3c2C(=O)c2ccccc2C3=O)c(C)c1 (centres unmarked) [Dye 2] | 3.6 | 11.0 | 6.79 | – | –
CC(C)Nc1ccc(NC(C)C)c2c1C(=O)c1ccccc1C2=O [Solvent Blue 36, reference compound] | 33 (color almost | 1.92 | – | – | –
